This is an account of results in patent US12441733B2, “Substituted 2,4-dioxotetrahydropyrimidines as intermediates in the synthesis of bruton's tyrosine kinase inhibitors” (Novartis AG, priority 2018, dated 2025).

This test concerns the target T1, BTK-GFP (Homo sapiens, UniProt Q06187+Q96SW2).
T1 construct: expressed in transfected cells; host or cells: HEK293A (Invitrogen R70507), lentiviral transduction with pLenti6-BTK-GFP-Ires-RFP, blasticidin selection
The experiment in a line: BTK-GFP protein abundance flow cytometry assay in HEK293A cells. The settings on record: HEK293A BTK-GFP-iresRFP cells, 24 h; for DC50: GFP signal by flow cytometry, concentration at which 50% maximal degradation was observed; for BTK deg Amax: % protein remaining at the concentration at which maximum degradation is seen. Type of test: cell-based. The method, boiled down:
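HEK293A cells stably expressing bicistronic BTK-GFP-IRES-RFP (C-terminal GFP tag) via lentiviral vector. Degradation read by flow cytometry as loss of GFP signal after degrader treatment. DC50 is concentration giving 50% maximal degradation; Amax is % protein remaining at maximal degradation.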
On the technique in general: A flow cytometer gives signals particle by particle.

The structures appear in SMILES notation.

T1 sequence (Q06187 whole entry): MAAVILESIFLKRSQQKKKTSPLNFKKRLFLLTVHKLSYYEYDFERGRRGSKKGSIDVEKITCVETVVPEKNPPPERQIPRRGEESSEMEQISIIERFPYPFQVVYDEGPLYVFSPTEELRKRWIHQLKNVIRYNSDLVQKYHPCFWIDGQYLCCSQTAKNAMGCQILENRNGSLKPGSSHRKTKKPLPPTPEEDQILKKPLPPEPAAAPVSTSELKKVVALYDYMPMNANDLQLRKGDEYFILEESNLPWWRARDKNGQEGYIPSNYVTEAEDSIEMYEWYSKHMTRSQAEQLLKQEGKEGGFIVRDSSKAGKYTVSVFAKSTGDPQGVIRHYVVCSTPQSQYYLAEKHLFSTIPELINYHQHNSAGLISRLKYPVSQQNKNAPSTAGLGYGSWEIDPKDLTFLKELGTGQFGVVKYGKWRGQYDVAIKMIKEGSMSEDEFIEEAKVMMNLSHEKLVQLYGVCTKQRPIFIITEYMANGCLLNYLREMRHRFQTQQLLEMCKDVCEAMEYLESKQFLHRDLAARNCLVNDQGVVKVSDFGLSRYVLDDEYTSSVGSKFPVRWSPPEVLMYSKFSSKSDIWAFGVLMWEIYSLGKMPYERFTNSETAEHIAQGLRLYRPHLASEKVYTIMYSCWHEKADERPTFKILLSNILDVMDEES
T1 sequence (Q96SW2 whole entry): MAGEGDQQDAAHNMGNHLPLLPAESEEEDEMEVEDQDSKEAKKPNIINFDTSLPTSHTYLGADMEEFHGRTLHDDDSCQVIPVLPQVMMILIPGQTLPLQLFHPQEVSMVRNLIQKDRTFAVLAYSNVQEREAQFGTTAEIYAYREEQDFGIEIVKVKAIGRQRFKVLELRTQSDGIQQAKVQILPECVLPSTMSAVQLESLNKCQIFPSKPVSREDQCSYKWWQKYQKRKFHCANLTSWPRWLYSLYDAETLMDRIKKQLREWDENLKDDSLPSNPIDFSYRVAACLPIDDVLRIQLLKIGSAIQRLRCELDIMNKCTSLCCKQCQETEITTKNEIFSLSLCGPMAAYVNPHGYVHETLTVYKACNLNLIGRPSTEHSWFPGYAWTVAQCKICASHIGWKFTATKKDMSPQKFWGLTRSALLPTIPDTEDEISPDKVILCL
T1 sequence (Q16531 whole entry partner): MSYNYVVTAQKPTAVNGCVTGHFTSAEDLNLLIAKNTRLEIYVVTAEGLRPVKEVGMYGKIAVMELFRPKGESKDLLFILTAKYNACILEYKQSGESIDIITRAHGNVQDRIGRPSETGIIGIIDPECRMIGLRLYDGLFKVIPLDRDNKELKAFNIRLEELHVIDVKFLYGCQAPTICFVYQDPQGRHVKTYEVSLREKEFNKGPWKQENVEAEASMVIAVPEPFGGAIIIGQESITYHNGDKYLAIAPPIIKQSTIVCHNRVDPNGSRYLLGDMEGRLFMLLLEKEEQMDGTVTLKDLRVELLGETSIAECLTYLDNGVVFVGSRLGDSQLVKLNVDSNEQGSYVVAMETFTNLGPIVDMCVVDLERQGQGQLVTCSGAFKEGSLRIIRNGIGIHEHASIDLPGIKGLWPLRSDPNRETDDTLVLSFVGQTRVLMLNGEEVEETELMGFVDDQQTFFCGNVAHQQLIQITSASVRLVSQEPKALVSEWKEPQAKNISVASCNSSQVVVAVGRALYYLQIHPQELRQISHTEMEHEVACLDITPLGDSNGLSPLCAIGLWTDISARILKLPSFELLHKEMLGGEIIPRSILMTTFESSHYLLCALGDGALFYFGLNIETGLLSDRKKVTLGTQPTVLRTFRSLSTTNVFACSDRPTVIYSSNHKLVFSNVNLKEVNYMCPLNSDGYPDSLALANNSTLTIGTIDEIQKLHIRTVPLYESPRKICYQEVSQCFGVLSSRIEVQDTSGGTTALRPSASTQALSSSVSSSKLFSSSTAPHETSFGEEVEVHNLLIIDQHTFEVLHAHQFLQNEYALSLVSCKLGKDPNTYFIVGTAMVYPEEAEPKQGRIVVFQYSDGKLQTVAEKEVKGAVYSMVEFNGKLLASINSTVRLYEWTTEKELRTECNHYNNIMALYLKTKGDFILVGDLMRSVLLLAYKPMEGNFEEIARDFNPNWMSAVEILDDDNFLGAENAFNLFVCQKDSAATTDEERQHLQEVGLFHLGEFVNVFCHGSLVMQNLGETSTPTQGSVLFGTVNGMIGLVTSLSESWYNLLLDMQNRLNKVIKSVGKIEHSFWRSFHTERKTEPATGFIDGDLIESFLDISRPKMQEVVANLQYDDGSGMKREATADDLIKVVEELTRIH

What is called DC50 is the concentration at which degradation of the target reaches its halfway point. Lower therefore signals degradation at low concentration. `COc1ccc(C(=O)NCCN2CCOC3(CCN(Cc4ccc(-c5cc6c(-c7cc(F)cc(NC(=O)c8ccc(C(C)(C)O)cc8F)c7C)ncnc6[nH]5)cc4)CC3)C2)cc1N1CCC(=O)NC1=O` [Compound 39, N-(3-(6-(4-((4-(2-(3-(2,4-dioxotetrahydropyrimidin-1(2H)-yl)-4-methoxybenzamido)ethyl)-1-oxa-4,9-diazaspiro[5.5]undecan-9-yl)methyl)phenyl)-7H-pyrrolo[2,3-d]pyrimidin-4-yl)-5-fluoro-2-methylphenyl)-2-fluoro-4-(2-hydroxypropan-2-yl)benzamide]: the DC50 was 149 nM and the “BTK deg Amax” value is on record as 12.7%.

In the case of `COc1ccc(C(=O)N2CCN(CCCCNCc3ccc(-c4cc5c(-c6cc(F)cc(NC(=O)c7ccc(C(C)(C)O)cc7F)c6C)ncnc5[nH]4)cc3)CC2)cc1N1CCC(=O)NC1=O` [Compound 40, N-(3-(6-(4-(((4-(4-(3-(2,4-dioxotetrahydropyrimidin-1(2H)-yl)-4-methoxybenzoyl)piperazin-1-yl)butyl)amino)methyl)phenyl)-7H-pyrrolo[2,3-d]pyrimidin-4-yl)-5-fluoro-2-methylphenyl)-2-fluoro-4-(2-hydroxypropan-2-yl)benzamide], the half-maximal degradation concentration (DC50) stood at 53.2 nM and the “BTK deg Amax” value was determined as 4.6%.

In the case of `COc1ccc(C(=O)NCCN2CCC3(CC2)CCN(Cc2ccc(-c4cc5c(-c6cc(F)cc(NC(=O)c7ccc(C(C)(C)O)cc7F)c6C)ncnc5[nH]4)cc2)CC3)cc1N1CCC(=O)NC1=O` [Compound 44, N-(3-(6-(4-((9-(2-(3-(2,4-dioxotetrahydropyrimidin-1(2H)-yl)-4-methoxybenzamido)ethyl)-3,9-diazaspiro[5.5]undecan-3-yl)methyl)phenyl)-7H-pyrrolo[2,3-d]pyrimidin-4-yl)-5-fluoro-2-methylphenyl)-2-fluoro-4-(2-hydroxypropan-2-yl)benzamide], it took 235 nM to reach half-maximal degradation (DC50) and the “BTK deg Amax” value was 48.4%.

For the compound `Cc1c(NC(=O)c2ccc(C(C)(C)O)cc2F)cc(F)cc1-c1ncnc2[nH]c(-c3ccc(CCN4CCC5(CC4)CCN(C(=O)c4ccc(F)c(N6CCC(=O)NC6=O)c4)CC5)cc3)cc12` [Compound 47, N-(3-(6-(4-(2-(9-(3-(2,4-dioxotetrahydropyrimidin-1(2H)-yl)-4-fluorobenzoyl)-3,9-diazaspiro[5.5]undecan-3-yl)ethyl)phenyl)-7H-pyrrolo[2,3-d]pyrimidin-4-yl)-5-fluoro-2-methylphenyl)-2-fluoro-4-(2-hydroxypropan-2-yl)benzamide], the 50% degradation concentration (DC50) turned out to be 2.2 nM and the “BTK deg Amax” value worked out at 6.7%.
